From patent US20070292351A1, “Assay for efficacy of histone deacetylase inhibitors” (Methylgene, Inc., priority 2006, published 2007)

Legend:
[1] = test system: peripheral white blood cells of patients; experiment: Real time RT-PCR of gene transcription in patients' peripheral white cells in vivo; design: species or system human
Procedure: FIG. 8. Induction of MT3 (A) and AREG (B) transcription in vivo in patients with solid tumor who received treatment with MGCD0103 for one week (three doses per week). At day 8 (72 h after the third dose), peripheral white blood cells were isolated and RNA extracted and analyzed by qRT-PCR
FIG. 12. Induction of transcription of three tumor suppressor genes, BTG1, TNFSF9 and p21 in peripheral white cells from Patient A in vivo as determined by real time RT-PCR. Note that both BTG1 and TNFSF9 were identified in FIG. 11 using microarray expression analysis and their expression is confirmed in vivo by real time RT-PCR.
FIG. 13. Induction of transcription of three tumor suppressor genes, BTG1, TNFSF9 and p21 in peripheral white cells from a MDS patient with clinical response (Patient E) and a MDS patient without response (Patient F) in vivo as determined by real time RT-PCR. Blood samples were drawn 48 hr post the 2nd dose in cycle 1.
(§1) Whole blood from either consenting healthy volunteers or consenting patients was centrifuged at 2500 rpm for 10 minutes at ambient temperature in a Sorvall RT-7 centrifuge (Mandel Scientific Co., Guelph, Ontario). Plasma was removed and buffy coat was collected. Five volumes of Erythrocyte Lysis Buffer (EL) (Qiagen Canada Inc., Mississauga, Ontario) were added into buffy coat. Buffy coat was incubated on ice for 20 minutes before it was centrifuged at 400 g for 10 minutes at 4° C. Supernatant was removed and buffy coat was washed twice with EL buffer and re-centrifuged. Buffy coat was resuspended in RPMI media and cells were counted with trypan blue exclusion. To isolate PBMCs, buffy coat cells were centrifuged over Lymphoprep (Axis-Shield, 1114544), and any remaining erythrocytes in the sample were lysed by treatment with EL lysis buffer (Qiagen, 79217). The cell pellets are washed and then re-suspended in RPMI containing 10% FBS.
(§2) Quantitative PCR with SYBR Green I detection with Mastercycler® ep realplex (Eppendorf) was performed using LightCycler® 480 SYBR Green I Master (Roche Diagnostics). SYBR Green I assays were performed with 600 nM primers. All other reaction conditions were as described by the manufacturer. Amplification conditions were 5 minutes of initial denaturation at 95° C., followed by 40 cycles of each 15 seconds at 95° C., 15 seconds at 63.4° C., 20 seconds at 68° C., a melting curve from 60° C. to 95° C. was recorded. Quantification was performed using Pfaffl method, a relative quantification method in real-time PCR (Nucleic Acids Research 2001 29:2002-2007). Primers were synthesized by Invitrogen (Invitrogen-Canada, Burlington, Ont.).
Human patients with either solid tumors or leukemia/MDS diseases were enrolled in phase I studies with consensus forms. […]

[2] = test system: peripheral blast cells from AML patients; experiment: Microarray gene expression analysis, AML patients treated with MGCD0103 in vivo; design: species or system human; settings: for Fold of Induction of CCL4 transcription / Fold of Induction of CCL7 transcription / Fold of Induction of IFNG transcription / Fold of Induction of THBS1 transcription: AML Patient A (clinical response)
Procedure: as §1
Biological analysis was performed using Biointerpreter software.
Human patients with either solid tumors or leukemia/MDS diseases were enrolled in phase I studies with consensus forms. MGCD0103 were dosed into patients orally every other day (day 1, day 3, day 5 […]). Blood samples were withdrawled by using the Vacutainer sodium-heparin blood collection tubes (Becton Dickinson Laboratories, Franklin Lakes, N.J.) and shipped to the test site within 24 hours on ice-pack. Baseline samples were drawn immediately prior to the first drug dose, while the 24 hour samples were drawn at 24 hours post the first drug dose. The 48 hours samples were drawn at 48 hours post the first dose. For the 1 week samples, blood was drawn 72 hours after day 5 dose (3 accumulated doses during week 1).

[3] = test system: human colon cancer HCT15 cells; experiment: RT-PCR of MT3 transcription in HCT15 cells; assay type: cell-based
Procedure: FIG. 1. […] HCT15 cells were treated with HDAC inhibitors or indicated compounds for 16 hours before total RNAs are isolated. RNA levels of MT3 were measured by real-time RT-PCR and are subsequently normalized against β-actin.
Colon cancer HCT15 cells were exposed to 1 μM MGCD0103 for various amounts of time, and MT3 RNA levels were monitored by conventional semi-quantitative RT-PCR. Maximal induction is achieved between 8 h and 24 h of exposure and maintained through 72 h.
RNA was extracted from 8×10^6 cells using the Qiagen RNeasy Mini kit (cat#74106, Qiagen, Missisauga Ont.) following the manufacturer's instructions. RT reaction was performed using the Expand Reverse Transcriptase kit from Roche (Cat#1 785 834 Roche Applied Biosciences, Laval, Que) with 1 μg total RNA together with 1 μl oligo(dT) primer (cat#y01212, Invitrogen-Canada, Burlington, Ont). cDNA was synthesized using an Eppendorf Mastercycler gradient PCR apparatus (Brinkmann Instruments Canada LTD., Mississauga, Ontario), using a two cycle protocol. For the 1st cycle reaction mixture (0.5 μl H2O, 4 μl of 5× Buffer, 2 μl DTT, 2 ul of 10 mM dNTPs, 0.5 μl RNAsin (cat#N211B, Promega, Fisher Scientific, Whitby, Ont.) and […] of the Expand Reverse Transcriptase (Cat#1785834, Roche, Laval, Quebec)) was incubated at 65° C. for 10 minutes and then set on ice. A second cycle was performed at 42° C. for 1 hour. The resulting cDNA products were kept at 4° C. until used.
One ul of the resulting cDNA was used for every amplification reaction with 18.9 ul H2O, 1.25 ul of 10 mM dNTPs, 0.5 ul of each primer pair, 2.5 ul of 10× Buffer. The PCR reaction was carried out in an Eppendorf Mastercycler gradient. The sequences of the primers used for the amplification of selected biomarkers, as well as the details of the PCR reaction cycles are featured below. All buffers came from Expand Long Template PCR system (Roche, Laval, Quebec, Cat#11681842001). All primers were synthesized by Invitrogen (Invitrogen-Canada, Burlington, Ont.)
Analysis of transcripts was performed using STORM 860 (Amersham Biosciences, Baie d'Urfe, Qubec). Transcription of genes was normalized to transcription of actin, which was performed in the same RT-PCR reaction. The relative expression level of gense was normalized to baseline signals.
as §2

## Nc1ccccc1NC(=O)c1ccc(CNc2nccc(-c3cccnc3)n2)cc1 [MGCD0103]
[1]; MDS patient with clinical response (Patient E), 48 hr post 2nd dose in cycle 1 (FIG. 13)
  Induction of transcription of BTG1, TNFSF9 and p21: Induction
[1]; patients with solid tumors, one week (three doses per week), day 8, qRT-PCR (FIG. 8A)
  induction of MT3 transcription in vivo: induction
[1]; patients with solid tumors, one week (three doses per week), day 8, qRT-PCR (FIG. 8B)
  induction of AREG transcription in vivo: induction
[1]; peripheral white cells, AML Patient A, real time RT-PCR (FIG. 12)
  Induction of transcription of BTG1, TNFSF9 and p21: Induction
[2]; 24 hr
  Fold of Induction of CCL4 transcription: 1.4 fold
  Fold of Induction of CCL7 transcription: 2.3 fold
  Fold of Induction of IFNG transcription: 1.4 fold
  Fold of Induction of THBS1 transcription: 1.4 fold
[2]; day 8
  Fold of Induction of CCL4 transcription: 12.2 fold
  Fold of Induction of CCL7 transcription: 7.3 fold
  Fold of Induction of IFNG transcription: 2.5 fold
  Fold of Induction of THBS1 transcription: 2.8 fold
[2]; peripheral blast cells, D8 vs 0 h, AML Patient A (response), in contrast to Patients B, C, D (FIG. 11)
  Induction of transcription of a subset of proapoptotic proteins: Induction
[2]; three other AML patients without response
  induction of transcription of the Table 5 genes (CCL7, CCL4, IFNG, THBS1): <= 1 fold
[3]; 1 uM (FIG. 3)
  Time-dependent induction of MT3 transcription: Time-dependent induction
  time through which maximal MT3 induction is maintained: ≥ 72 h
[3]; 16 h, semi-quantitative RT-PCR (FIG. 2)
  Dose-dependent induction of MT3 transcription: Dose-dependent induction
[3]; 16 hours, real-time RT-PCR normalized against beta-actin (FIG. 1)
  Induction of transcription of MT3: induced
